Biological target: CCR-2 (Homo sapiens, UniProt P41597)
Experiment: relative activity of separated diastereomers (assay not stated)
Details: single isomers separated by chiral HPLC (ChiralPak OD); fast vs slow isomer

CCR-2, sequence (P41597 whole entry): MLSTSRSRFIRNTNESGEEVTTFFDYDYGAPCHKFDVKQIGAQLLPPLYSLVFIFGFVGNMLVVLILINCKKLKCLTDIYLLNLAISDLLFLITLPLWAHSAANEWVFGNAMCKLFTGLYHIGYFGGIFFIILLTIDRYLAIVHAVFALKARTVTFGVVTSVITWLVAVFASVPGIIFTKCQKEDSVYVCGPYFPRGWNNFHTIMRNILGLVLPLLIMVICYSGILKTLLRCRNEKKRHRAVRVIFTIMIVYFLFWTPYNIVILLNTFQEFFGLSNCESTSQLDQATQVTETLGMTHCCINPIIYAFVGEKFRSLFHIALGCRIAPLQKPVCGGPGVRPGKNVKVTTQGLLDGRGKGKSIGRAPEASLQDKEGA

Row | SMILES | relative activity of the two diastereomers epimeric α to the amide carbonyl
1 | CC(=O)Nc1nc([C@@H](CCN2CC[C@@]3(C=Cc4ccccc43)[C@@H](C)C2)C(=O)NCc2cc(C(F)(F)F)cc(C(F)(F)F)c2)cs1 [Example 52h-(R)] | less active
2 | CC(=O)Nc1nc([C@H](CCN2CC[C@@]3(C=Cc4ccccc43)[C@@H](C)C2)C(=O)NCc2cc(C(F)(F)F)cc(C(F)(F)F)c2)cs1 [Example 52h-(S)] | more active
